Data reported in patent publication US5187305A, “S-nitroso-N-alkonoylpenicillamines” (Glaxo Inc., priority 1990, dated 1993).

Experiments:
RAT AORTA = test: Aorta Vasodilation Assay, rat aorta rings (endothelium removed, phenylephrine-contracted); set-up: species or system male Sprague-Dawley rats; details: 20% O2, without methylene blue; for RELATIVE POTENCY: compared with nitroprusside; for IC50: read-out: IC50 (relaxation)
Source text: (§1) The thoracic aortas removed from euthanized male Sprague-Dawley rats (200-300 g) and male New Zealand, white rabbits (1.5-3.0 kg) are cleaned of adherent connective tissue and cut into rings 3 to 5 mm in length. Endothelium is removed by rolling the rings on moist filter paper. Rings are suspended in an organ chamber containing a physiological salt solution of (mM): NaCl, 118.4; KCl, 4.7; MgSO4.H2 O, 1.2; CaCl2.2H2 O, 2.5; KH2 PO4, 1.2; NaHCO3, 25.0; and dextrose, 11.1. The bathing solution is maintained at 37° C. and half of the tissues are aerated with 95% O2 /5% CO2 and half are aerated with 20% O2 /5% CO2 /75% N2. Tissues are mounted to isometric force displacement transducers and responses are recorded on a polygraph.
(§2) All rings are gradually stretched (over a 120 min. period) to a basal resting tension of 2 g (rat) and 4 g (rabbit), which is maintained throughout the assay. During the basal tension adjustment period, the rings are exposed to KCl (40 mM) two to three times to verify tissue contractility. During this period, the effectiveness of endothelium removal is confirmed by the absence of the characteristic relaxation seen with acetylcholine (1×10^-6 M) in endothelium-intact (but not endothelium-removed) rings contracted with phenylephrine (1×10^-7 M).
(§3) Methylene blue (1×10^-5 M) is added to half of the tissues aerated at 20% O2 and 95% O2 to inhibit basal cGMP accumulation. Phenylephrine (1×10^-7 M) is then added and the rings are allowed to obtain a stable contractile response after which time, SOD (100 U/mL) is added to the tissues. The test compound is then added in a cumulative fashion. After the stabilization of the response to the last concentration of the test compound, sodium nitroprusside (1×10^-4 M) is added to induce complete relaxation.

RABBIT AORTA = test: Aorta Vasodilation Assay, rabbit aorta rings (endothelium removed, phenylephrine-contracted); set-up: species or system male New Zealand white rabbits; details: 20% O2, without methylene blue; for RELATIVE POTENCY: compared with nitroprusside; for IC50: Oryctolagus cuniculus, read-out: IC50 (relaxation)
Source text: as §1, §2, §3

[1] = orally (including sublingually), rectally, vaginally, nasally or transdermally; cited from earlier work
[2] = compared with glyceryl trinitrate; cited from earlier work
[3] = among nitrosothiols; cited from earlier work

Row | IC50 (RAT AORTA) [nM] | IC50 (RABBIT AORTA) [nM] | SMILES | RELATIVE POTENCY (RAT AORTA) | RELATIVE POTENCY (RABBIT AORTA) | Absorption [1] | Tolerance [2] | Stability [3]
1 | 140 | 160 | CC(=O)N[C@@H](C(=O)O)C(C)(C)SN=O [SNAP, N-acetyl-3-(nitrosothio)-D-valine] | 56 | 8.0 | poorly absorbed by these routes | much less of a problem than tolerance of gyceryl trinitrate | one of the most stable nitrosothiols known
2 | 7.6 | 65 | CC(=O)N[C@@H](C(=O)Oc1ccccc1)C(C)(C)SN=O [(I), R^1 = PHENYL R^2 = METHYL, N-Acetyl-3-(nitrosothio)-D-valine phenyl ester] | 3.04 | 3.25 |  |  | 

Row | SMILES | IC50 (RAT AORTA) [nM] | IC50 (RABBIT AORTA) [nM] | RELATIVE POTENCY (RAT AORTA) | RELATIVE POTENCY (RABBIT AORTA) | Absorption [1] | Tolerance [2] | Stability [3]
3 | O=[N+]([O-])OCC(CO[N+](=O)[O-])O[N+](=O)[O-] [NITROGLYCERIN, glyceryl trinitrate] | 9.4 | 23 | 3.76 | 1.15 |  |  | 
